Here are results for one compound from US8883473B2, “Methods of treatment using allosteric processing inhibitors for matrix metalloproteinases” (Janssen Pharmaceutica N.V., priority 2011, dated 2014).

Assay [1] deals with female Lewis rats with SCW-induced arthritis. Kind of assay: Efficacy in rats with SCW-induced arthritis (ankle thickness, clinical scores). The format is in vivo, rat. How it is done:
To induce arthritis, Female Lewis (LEW/N) rats, 5-6 weeks of age (80-100 g) were injected (i.p.) with SCW PG-PS as described above. Eighteen days later, arthritis was well established. Calipers were used to measure the width (anterior to posterior surface) of the left and right hind ankles of each rat. Each ankle was measured 3 times and averaged, and treatment groups were randomized based on ankle thickness (Table 6). Commencing on day 18, randomized groups of arthritic rats (n=5 rats/group) received vehicle or 5, 20, or 50 mg/kg Example 2 BID by oral gavage. Vehicle consisted of an aqueous mixture containing 2% (v:v) N-methylpyrrolidone, 5% (v:v) glycerine, and 20% (w:v) captisol. Treatment continued daily through the morning of day 26.
By day 18 mean ankle thickness was increased an average of >4.4 mm compared to disease free rats. Rats treated with vehicle alone continued to gradually develop a more severe arthritis based on ankle thickness measurements over the eight-day treatment period (Table 6). […] By day 26, the disease associated increase in ankle thickness had been reduced 27, 37, and 46 percent by 5, 20, and 50 mg/kg Example 2, respectively.
Hind paw inflammation clinical scores were assigned based on swelling and erythema.

In assay [2] the target is T1, MMP9 (Rattus norvegicus, UniProt P50282).
T1 construct: Pro and active MMP9 were abundantly present in ankles of SCW-induced vehicle-treated rats; from tissue; host or cells: tibia-tarsus joints (ankles) of female Lewis rats
T1 sequence (P50282 108-708): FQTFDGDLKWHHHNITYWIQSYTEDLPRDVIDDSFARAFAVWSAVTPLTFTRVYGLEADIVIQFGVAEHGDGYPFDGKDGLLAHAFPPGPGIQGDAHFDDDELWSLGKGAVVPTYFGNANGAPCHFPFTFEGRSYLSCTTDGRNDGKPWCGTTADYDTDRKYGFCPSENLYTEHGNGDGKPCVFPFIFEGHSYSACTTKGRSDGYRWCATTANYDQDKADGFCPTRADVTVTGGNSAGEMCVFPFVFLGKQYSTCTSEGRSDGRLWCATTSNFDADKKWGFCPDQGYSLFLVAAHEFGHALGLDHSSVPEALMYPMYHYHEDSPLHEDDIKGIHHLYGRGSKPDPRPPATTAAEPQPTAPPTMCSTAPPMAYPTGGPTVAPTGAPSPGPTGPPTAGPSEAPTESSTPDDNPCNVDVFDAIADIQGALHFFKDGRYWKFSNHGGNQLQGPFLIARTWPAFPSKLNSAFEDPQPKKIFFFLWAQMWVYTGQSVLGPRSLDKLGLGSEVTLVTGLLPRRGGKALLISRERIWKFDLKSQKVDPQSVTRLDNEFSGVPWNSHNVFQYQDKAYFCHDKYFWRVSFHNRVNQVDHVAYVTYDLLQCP
Kind of assay: Pro and active MMP9 in ankles of rats with SCW-induced arthritis by Western blot. Format: in vivo. The following applies: day 26, four hours after the AM dose, mAb-L51/82. As to the method:
Hind-limbs were skinned, severed just above the tibia-tarsus joint and below the metatarsals, and the tibia-tarsus joints (ankles) were weighed, snap frozen and pulverized on dry ice using a hammer and anvil. The pulverized tissue was suspended in 3 volumes (w:v) of ice-cold homogenization buffer containing 50 mM Tris pH 7.5, 150 mM NaCl, 5 mM EDTA, 1% Triton X100, 0.05% Brij 30, 10% dimethylsulfoxide and Complete EDTA-free Protease Inhibitor Cocktail (Roche Diagnostics). The suspended tissue was homogenized sequentially with a Kinematica AG Polytron and a Dounce homogenizer. Homogenates were centrifuged at 16,000×g for 10 min at 4° C. and the soluble fractions were saved. Dimethylsulfoxide was removed from a portion of each soluble fraction using PD MiniTrap™ G-25 desalting columns (GE Healthcare). Homogenates (0.25 mL), free of DMSO, were diluted with an equal volume of binding buffer (i.e., homogenization buffer without dimethylsufoxide) and adjusted to contain 50 μL of a 50% slurry of gelatin-conjugated sepharose. Following 2 hours of rotation at 4° C. the beads were washed twice in binding buffer and eluted in 100 μL 2×-reducing Laemmli buffer with heating to 95° C. for 5 minutes. […]
A general note: In western blotting, separated proteins are transferred to a membrane and probed.

As to `Cc1nc(C)c(-c2csc(Nc3cc(S(N)(=O)=O)ccc3OC(C)C)n2)s1` [Example 2, 3-(2′,4′-Dimethyl-[4,5′]bithiazolyl-2-ylamino)-4-isopropoxy-benzenesulfonamide.HBr], in assay [1] (5, 20, 50 mg/kg BID oral gavage Day 18-26), the “ankle thickness measurements” value is recorded as “dose-dependent decrease”. The “clinical score measurements” value in assay [1] (5, 20, 50 mg/kg BID, significant effects emerging at the 20 mg/kg dose) is “dose dependent decrease”. In addition, the “abundance of proMMP9 in ankles” value in assay [2] is “did not reduce”.
